# Patent US9499538B2, “Estrogen receptor modulators and uses thereof” (Seragon Pharmaceuticals, Inc., priority 2012, dated 2016)
# Columns and labels:
# [1] = tested on: MCF-7 cells; test: Breast Cancer Cell Viability Assays (MCF-7, CellTiter-Glo); type: cell-based; settings: 5 days' compound exposure; for IC50: Homo sapiens, MCF7, 120 h
# Method in brief: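 Percent viability, background-subtracted against untreated wells, was taken from CellTiter-Glo luminescence after 5 days' exposure of MCF-7 cells. Compounds were tested at eleven semilog concentrations, final 0.3–0.000003 μM, in RPMI containing 10% FBS.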
# [2] = target: T1, ER-α in MCF-7 cells (Homo sapiens, UniProt P03372); test: Breast Cancer Cell ER-α In Cell Western Assay (SP1); type: cell-based; settings: 4 or 24 hr post compound addition; for Emax: MCF7, SP1 antibody, read-out: ER-α In Cell Western Assay (SP1) Max Response; for DC50: SP1 antibody, read-out: ER-α In Cell Western Assay (SP1) IC50
# T1 construct: endogenous in cells; host or cells: MCF-7
# T1 sequence (P03372 1-595): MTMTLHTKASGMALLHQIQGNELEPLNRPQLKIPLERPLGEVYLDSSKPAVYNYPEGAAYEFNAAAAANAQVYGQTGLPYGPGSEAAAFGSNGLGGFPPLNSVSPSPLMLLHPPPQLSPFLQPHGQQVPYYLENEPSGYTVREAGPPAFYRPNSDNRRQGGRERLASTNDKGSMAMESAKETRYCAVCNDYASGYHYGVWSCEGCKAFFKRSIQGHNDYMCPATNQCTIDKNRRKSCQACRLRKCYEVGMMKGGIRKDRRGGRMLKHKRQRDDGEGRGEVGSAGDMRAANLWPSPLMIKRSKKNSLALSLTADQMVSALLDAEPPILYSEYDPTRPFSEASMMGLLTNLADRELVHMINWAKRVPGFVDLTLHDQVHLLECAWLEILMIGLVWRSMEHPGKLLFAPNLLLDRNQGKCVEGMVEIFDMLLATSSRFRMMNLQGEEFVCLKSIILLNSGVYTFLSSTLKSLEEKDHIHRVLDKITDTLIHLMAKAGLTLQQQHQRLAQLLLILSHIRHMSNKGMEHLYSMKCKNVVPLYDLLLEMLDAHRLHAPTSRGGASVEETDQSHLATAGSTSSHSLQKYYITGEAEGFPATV
# Method in brief: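 ER-α levels quantified by in-cell western: SP1 signal normalised to DRAQ5 DNA stain, relative to untreated cells (% ER). Compounds at 0.3–0.000003 μM final, 11-point semilog series, 4 or 24 h exposure of MCF-7 cells grown in charcoal-stripped serum.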
SMILES,IC50 [1] [nM],Emax [2] [%],DC50 [2] [nM],MCF7 Viability Assay Max Response [1]
"O=C(O)/C=C/c1ccc(/C(=C(\c2ncccc2F)C2CCC2)c2ccc3scnc3c2)cc1 [Example 99, (E)-3-(4-((E)-1-(Benzo[d]thiazol-5-yl)-2-cyclobutyl-2-(3-fluoropyridin-2-yl)vinyl)phenyl)acrylic acid]",≤ 100,≥ 40,≤ 100,++ (++ = a single % value ≧ 40%)
"O=C(O)/C=C/c1ccc(/C(=C(\c2ncccc2Cl)C2CCC2)c2ccc3scnc3c2)cc1 [Example 100, (E)-3-(4-((E)-1-(Benzo[d]thiazol-5-yl)-2-(3-chloropyridin-2-yl)-2-cyclobutylvinyl)phenyl)acrylic acid]",≤ 100,≥ 40,≤ 100,++ (++ = a single % value ≧ 40%)
"CC/C(=C(/c1ccc(/C=C/C(=O)O)cc1)c1ccc2[nH]nc(F)c2c1)c1ccc(Cl)cc1C#N [Example 101, (E)-3-(4-((E)-2-(4-Chloro-2-cyanophenyl)-1-(3-fluoro-1H-indazol-5-yl)but-1-en-1-yl)phenyl)acrylic acid]",≤ 100,≥ 40,≤ 100,++ (++ = a single % value ≧ 40%)
"CC/C(=C(/c1ccc(/C=C/C(=O)O)cc1)c1ccc2[nH]nc(F)c2c1)c1ccc(C#N)cc1F [Example 104, (E)-3-(4-((E)-2-(4-Cyano-2-fluorophenyl)-1-(3-fluoro-1H-indazol-5-yl)but-1-en-1-yl)phenyl)acrylic acid]",≤ 100,≥ 40,≤ 100,++ (++ = a single % value ≧ 40%)
CC/C(=C(/c1ccc(/C=C/C(=O)O)cc1)c1ccc2[nH]nc(F)c2c1)c1ccc(C#N)cc1C [Example 105],≤ 100,≥ 40,≤ 100,++ (++ = a single % value ≧ 40%)
"CC/C(=C(/c1ccc(/C=C/C(=O)O)cc1)c1ccc2[nH]nc(F)c2c1)c1ccc(C#N)cc1Cl [Example 106, (E)-3-(4-((E)-2-(2-Chloro-4-cyanophenyl)-1-(3-fluoro-1H-indazol-5-yl)but-1-en-1-yl)phenyl)acrylic acid]",≤ 100,≥ 40,≤ 100,++ (++ = a single % value ≧ 40%)
CC/C(=C(/c1ccc(/C=C/C(=O)O)cc1)c1ccc2[nH]nc(F)c2c1)c1ccc(OC)cc1C#N [Example 107],≤ 100,≥ 40,≤ 100,++ (++ = a single % value ≧ 40%)
"N#Cc1cc(Cl)ccc1/C(=C(\c1ccc(/C=C/C(=O)O)cc1)c1ccc2[nH]ncc2c1)C1CCC1 [Example 109, (E)-3-(4-((E)-2-(4-Chloro-2-cyanophenyl)-2-cyclobutyl-1-(1H-indazol-5-yl)vinyl)phenyl)acrylic acid]",≤ 100,≥ 40,≤ 100,++ (++ = a single % value ≧ 40%)
"CCOc1cc(C)c(/C(=C(\c2ccc(/C=C/C(=O)O)cc2)c2ccc3[nH]nc(F)c3c2)C2CCC2)cn1 [Example 110, (E)-3-(4-((E)-2-Cyclobutyl-2-(6-ethoxy-4-methylpyridin-3-yl)-1-(3-fluoro-1H-indazol-5-yl)vinyl)phenyl)acrylic acid]",≤ 100,≥ 40,≤ 100,++ (++ = a single % value ≧ 40%)
"COc1ncc(/C(=C(\c2ccc(/C=C/C(=O)O)cc2)c2ccc3[nH]nc(F)c3c2)C2CCC2)c(C(F)(F)F)n1 [Example 111, (E)-3-(4-((E)-2-Cyclobutyl-1-(3-fluoro-1H-indazol-5-yl)-2-(2-methoxy-4-(trifluoromethyl)pyrimidin-5-yl)vinyl)phenyl)acrylic acid]",≤ 100,≥ 40,≤ 100,++ (++ = a single % value ≧ 40%)

# The next lines start with results.
IC50 [1] [nM],Emax [2] [%],DC50 [2] [nM],SMILES,MCF7 Viability Assay Max Response [1]
≤ 100,≥ 40,≤ 100,"Cc1cc(C#N)ccc1/C(=C(\c1ccc(/C=C/C(=O)O)cc1)c1ccc2scnc2c1)C1CCC1 [Example 96, (E)-3-(4-((E)-1-(Benzo[d]thiazol-5-yl)-2-(4-cyano-2-methylphenyl)-2-cyclobutylvinyl)phenyl)acrylic acid]",++ (++ = a single % value ≧ 40%)
≤ 100,≥ 40,≤ 100,"COc1ccc(/C(=C(\c2ccc(/C=C/C(=O)O)cc2)c2ccc3scnc3c2)C2CCC2)c(C#N)c1 [Example 97, (E)-3-(4-((E)-1-(Benzo[d]thiazol-5-yl)-2-(2-cyano-4-methoxyphenyl)-2-cyclobutylvinyl)phenyl)acrylic acid]",++ (++ = a single % value ≧ 40%)
≤ 100,≥ 40,≤ 100,"Cc1cccnc1/C(=C(\c1ccc(/C=C/C(=O)O)cc1)c1ccc2scnc2c1)C1CCC1 [Example 98, (E)-3-(4-((E)-1-(Benzo[d]thiazol-5-yl)-2-cyclobutyl-2-(3-methylpyridin-2-yl)vinyl)phenyl)acrylic acid]",++ (++ = a single % value ≧ 40%)
≤ 100,≥ 40,≤ 100,"CC/C(=C(/c1ccc(/C=C/C(=O)O)cc1)c1ccc2[nH]nc(F)c2c1)c1ccc(F)cc1C#N [Example 102, (E)-3-(4-((E)-2-(2-Cyano-4-fluorophenyl)-1-(3-fluoro-1H-indazol-5-yl)but-1-en-1-yl)phenyl)acrylic acid]",++ (++ = a single % value ≧ 40%)
≤ 100,≥ 40,≤ 100,CC/C(=C(/c1ccc(/C=C/C(=O)O)cc1)c1ccc2[nH]nc(F)c2c1)c1ccc(C(F)(F)F)cc1C#N [Example 103],++ (++ = a single % value ≧ 40%)
≤ 100,≥ 40,≤ 100,"N#Cc1cc(Cl)ccc1/C(=C(\c1ccc(/C=C/C(=O)O)cc1)c1ccc2[nH]nc(F)c2c1)C1CCC1 [Example 108, (E)-3-(4-((E)-2-(4-Chloro-2-cyanophenyl)-2-cyclobutyl-1-(3-fluoro-1H-indazol-5-yl)vinyl)phenyl)acrylic acid]",++ (++ = a single % value ≧ 40%)
≤ 100,≥ 40,≤ 100,"COc1cc(C)c(/C(=C(\c2ccc(/C=C/C(=O)O)cc2)c2ccc3[nH]nc(F)c3c2)C2CCC2)cn1 [Example 112, (E)-3-(4-((E)-2-Cyclobutyl-1-(3-fluoro-1H-indazol-5-yl)-2-(6-methoxy-4-methylpyridin-3-yl)vinyl)phenyl)acrylic acid]",++ (++ = a single % value ≧ 40%)
≤ 100,≥ 40,≤ 100,"COc1ccc(/C(=C(\c2ccc(/C=C/C(=O)O)cc2)c2ccc3[nH]nc(F)c3c2)C2CC2)c(F)c1 [Example 113, (E)-3-(4-((E)-2-Cyclopropyl-1-(3-fluoro-1H-indazol-5-yl)-2-(2-fluoro-4-methoxyphenyl)vinyl)phenyl)acrylic acid]",++ (++ = a single % value ≧ 40%)
≤ 100,≥ 40,≤ 100,"COc1ccc(/C(=C(\c2ccc(/C=C/C(=O)O)cc2)c2ccc3[nH]nc(F)c3c2)C2CC2)c(Cl)c1 [Example 114, (E)-3-(4-((E)-2-(2-Chloro-4-methoxyphenyl)-2-cyclopropyl-1-(3-fluoro-1H-indazol-5-yl)vinyl)phenyl)acrylic acid]",++ (++ = a single % value ≧ 40%)
≤ 100,≥ 40,≤ 100,"COc1ccc(/C(=C(\c2ccc(/C=C/C(=O)O)cc2)c2ccc3[nH]nc(F)c3c2)C2CC2)c(C)c1 [Example 115, (E)-3-(4-((E)-2-Cyclopropyl-1-(3-fluoro-1H-indazol-5-yl)-2-(4-methoxy-2-methylphenyl)vinyl)phenyl)acrylic acid]",++ (++ = a single % value ≧ 40%)
≤ 100,≥ 40,≤ 100,"COc1cc(C)c(/C(=C(\c2ccc(/C=C/C(=O)O)cc2)c2ccc3[nH]nc(F)c3c2)C2CC2)cn1 [Example 116, (E)-3-(4-((E)-2-Cyclopropyl-1-(3-fluoro-1H-indazol-5-yl)-2-(6-methoxy-4-methylpyridin-3-yl)vinyl)phenyl)acrylic acid]",++ (++ = a single % value ≧ 40%)
